Biological target: T1, human GPR 119 receptor (Homo sapiens, UniProt Q8TDV5)
T1 construct: expressed in transfected cells
T1 sequence (Q8TDV5 1-335): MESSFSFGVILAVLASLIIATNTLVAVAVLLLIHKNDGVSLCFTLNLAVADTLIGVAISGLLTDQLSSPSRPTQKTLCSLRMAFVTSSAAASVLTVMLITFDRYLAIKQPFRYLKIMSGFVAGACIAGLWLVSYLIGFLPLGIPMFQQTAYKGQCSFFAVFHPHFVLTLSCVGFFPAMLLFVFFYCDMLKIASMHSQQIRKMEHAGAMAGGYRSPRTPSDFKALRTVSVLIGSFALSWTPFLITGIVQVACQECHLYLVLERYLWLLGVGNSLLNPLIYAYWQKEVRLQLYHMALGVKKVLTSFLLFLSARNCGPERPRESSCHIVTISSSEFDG
Assay: cAMP assay in stable cell line expressing recombinant human GPR 119 receptor
Assay type: cell-based
Conditions: DMSO = 1
Description: A stable cell line expressing recombinant human GPR 119 receptor was established and used to investigate the efficacy of the compounds of the invention based on the intracellular levels of cyclic AMP (cAMP) using commercially available cAMP kits.

| Structure (SMILES) | Fold increase in cyclic AMP with respective to DMSO (10 nM compound) [fold] | Fold increase in cyclic AMP with respective to DMSO (100 nM compound) [fold] | Fold increase in cyclic AMP with respective to DMSO (1 uM compound) [fold] |
| --- | --- | --- | --- |
| Cc1c(Oc2cccc(/C=C3\SC(=O)NC3=O)c2)ncnc1OC1CCN(Cc2ccccc2)CC1 [Example 27, (Z)-5-(3-((6-((1-Benzylpiperidin-4-yl)oxy)-5-methylpyrimidin-4-yl)oxy)benzylidene)thiazolidine-2,4-dione] | 1.38 | 2.89 | 4.79 |
| Cc1c(Oc2cccc(/C=C3\SC(=O)NC3=O)c2)ncnc1OC1CCN(c2ncccn2)CC1 [Example 28, (Z)-5-(3-((5-Methyl-6-((1-(pyrimidin-2-yl)piperidin-4-yl)oxy)pyrimidin-4-yl)oxy)benzylidene)thiazolidine-2,4-dione] | 1.32 | 2.86 | 4.56 |
| O=C1NC(=O)/C(=C/c2cccc(Oc3cc(OC4CCN(C(=O)OCc5ccccc5)CC4)ncn3)c2)S1 [Example 29, (Z)-Benzyl 4-((6-(3-((2,4-dioxothiazolidin-5-ylidene)methy 1)phenoxy)pyrimidin-4-yl)oxy)piperidine-1-carboxylate] | 2.09 | 3.66 | 8.17 |
| O=C1NC(=O)/C(=C/c2ccc(Oc3cc(OC4CCN(C(=O)OCc5ccccc5)CC4)ncn3)cc2)S1 [Example 30, (Z)-Benzyl 4-((6-(4-((2,4-dioxothiazolidin-5-ylidene)methyl)phenoxy)pyrimidin-4-yl)oxy)piperidine-1-carboxylate] | 2.29 | 3.59 | 7.4 |
| CCN1C(=O)S/C(=C\c2ccc(Oc3cc(OC4CCN(C(=O)OC(C)(C)C)CC4)ncn3)cc2)C1=O [Example 31, (Z)-tert-Butyl 4-((6-(4-((3-ethyl-2,4-doxothiazolidin-5-ylidene)methyl)phenoxy)pyrimidin-4-yl)oxy)piperidine-1-carboxylate] | 1.06 | 2.27 | 3.66 |
| COC(=O)N1CCC(Oc2ncnc(Oc3cccc(/C=C4\SC(=O)N(C(C)C)C4=O)c3)c2C)CC1 [Example 32, (Z)-Methyl 4-((6-(3-((3-isopropyl-2,4-dioxothiazolidin-5-ylidene)methyl)phenoxy)-5-methylpyrimidin-4-yl)oxy)piperidine-1-carboxylate] | 0.77 | 0.94 | 1.45 |
| CC(C)COC(=O)N1CCC(Oc2cc(Oc3cccc(/C=C4\SC(=O)NC4=O)c3)ncn2)CC1 [Example 33, (Z)-Isobutyl 4-((6-(3-((2,4-dioxothiazolidin-5-ylidene)methyl)phenoxy)pyrimidin-4-yl)oxy)piperidine-1-carboxylate] | 0.83 | 1.36 | 2.72 |
| CC(C)COC(=O)N1CCC(Oc2cc(Oc3ccc(/C=C4\SC(=O)NC4=O)cc3)ncn2)CC1 [Example 34, (Z)-Isobutyl 4-((6-(4-((2,4-dioxothiazolidin-5-ylidene)methyl)phenoxy)pyrimidin-4-yl)oxy)piperidine-1-carboxylate] | 0.73 | 1.09 | 2.22 |
| COC(=O)N1CCC(Oc2cc(Oc3ccc(/C=C4\SC(=O)NC4=O)cc3)ncn2)CC1 [Example 35, (Z)-Methyl 4-((6-(4-((2,4-dioxothiazolidin-5-ylidene)methyl)phenoxy)pyrimidin-4-yl)oxy)piperidine-1-carboxylate] | 0.56 | 0.57 | 0.96 |
| COC(=O)N1CCC(Oc2cc(Oc3cccc(/C=C4\SC(=O)NC4=O)c3)ncn2)CC1 [Example 36, (Z)-Methyl 4-((6-(3-((2,4-dioxothiazolidin-5-ylidene)methyl)phenoxy)pyrimidin-4-yl)oxy)piperidine-1-carboxylate] | 0.80 | 1.38 | 2.19 |
| O=C1NC(=O)/C(=C/c2ccc(Oc3cc(OC4CCN(Cc5ccccc5)CC4)ncn3)cc2)S1 [Example 37, (Z)-5-(4-((6-((1-Benzylpiperidin-4-yl)oxy)pyrimidin-4-yl)oxy)benzylidene)thiazolidine-2,4-dione] | 0.97 | 1.47 | 2.07 |
| Cc1c(Oc2ccc(/C=C3\SC(=O)NC3=O)cc2)ncnc1OC1CCN(Cc2ccccc2)CC1 [Example 38, (Z)-5-(4-((6-((1-Benzylpiperidin-4-yl)oxy)-5-methylpyrimidin-4-yl)oxy)benzylidene)thiazolidine-2,4-dione] | 0.34 | 0.67 | 1.64 |
| O=C1NC(=O)/C(=C/c2cccc(Oc3cc(OC4CCN(Cc5ccccc5)CC4)ncn3)c2)S1 [Example 39, (Z)-5-(3-((6-((1-Benzylpiperidin-4-yl)oxy)pyrimidin-4-yl)oxy)benzylidene)thiazolidine-2,4-dione] | 0.85 | 1.38 | 2.20 |
| COc1cc(/C=C2\SC(=O)NC2=O)ccc1Oc1cc(OC2CCN(C(=O)OC(C)(C)C)CC2)ncn1 [Example 40, (Z)-tert-Butyl 4-((6-(4-((2,4-dioxothiazolidin-5-ylidene)methyl)-2-methoxyphenoxy)pyrimidin-4-yl)oxy)piperidine-1-carboxylate] | 0.87 | 1.21 | 1.66 |
| CCc1cnc(N2CCC(Oc3cc(Oc4ccc(/C=C5\SC(=O)NC5=O)cc4)ncn3)CC2)nc1 [Example 41, (Z)-5-(4-((6-((1-(5-Ethylpyrimidin-2-yl)piperidin-4-yl)oxy)pyrimidin-4-yl)oxy)benzylidene)thiazolidine-2,4-dione] | 1.00 | 1.58 | 3.53 |
| O=C1NC(=O)/C(=C/c2cccc(Oc3cc(OC4CCN(c5ncccn5)CC4)ncn3)c2)S1 [Example 42, (Z)-5-(3-((6-((1-(Pyrimidin-2-yl)piperidin-4-yl)oxy)pyrimidin-4-yl)oxy)benzylidene)thiazolidine-2,4-dione] | 0.65 | 1.27 | 3.10 |
| O=C1NC(=O)/C(=C/c2ccc(Oc3cc(OC4CCN(c5ncccn5)CC4)ncn3)cc2)S1 [Example 43, (Z)-5-(4-((6-((1-(Pyrimidin-2-yl)piperidin-4-yl)oxy)pyrimidin-4-yl)oxy)benzylidene)thiazolidine-2,4-dione] | 0.94 | 1.27 | 1.98 |
| CCOC(=O)CN1C(=O)S/C(=C\c2cccc(Oc3ncnc(OC4CCN(C(=O)OC(C)(C)C)CC4)c3C)c2)C1=O [Example 45, (Z)-tert-Butyl 4-((6-(3-((3-(2-ethoxy-2-oxoethyl)-2,4-dioxothiazolidin-5-ylidene)methyl)phenoxy)-5-methylpyrimidin-4-yl)oxy)piperidine-1-carboxylate] | 1.05 | 1.33 | 2.88 |
| CC(=O)CN1C(=O)S/C(=C\c2ccc(Oc3cc(OC4CCN(C(=O)OC(C)(C)C)CC4)ncn3)cc2)C1=O [Example 46, (Z)-tert-Butyl 4-((6-(4-((2,4-dioxo-3-(2-oxopropyl)thiazolidin-5-ylidene)methyl)phenoxy)pyrimidin-4-yl)oxy)piperidine-1-carboxylate] | 1.58 | 1.89 | 5.45 |
